# Data reported in patent publication US20250353841A1 (BIOGEN MA INC., priority 2022, published 2025).
# Tested on: mutant Huntington (HTT) protein
# Test: HTT Mutant HTRF iPSC assay (mHTT protein lowering)
# Format: cell-based
# Conditions: human iPSC derived from a HTT patient with a poly-Q49 mutation
structure (smiles),measurement,value
"Cc1cn2nc(-c3cc(F)c4nc(NC(=O)C5CCC(N(C)C)C5)cn4c3)cc(C)c2n1 (racemic) [Compound 128, rac-3-(dimethylamino)-N-(6-(2,8-dimethylimidazo[1,2-b]pyridazin-6-yl)-8-fluoroimidazo[1,2-a]pyridin-2-yl)cyclopentane-1-carboxamide]",IC50,< 100 nM
"Cc1cn2nc(-c3cc(F)c4nc(NC(=O)C5CCCC(N(C)C)C5)cn4c3)cc(C)c2n1 (racemic) [Compound 247, 3-(dimethylamino)-N-(6-(2,8-dimethylimidazo[1,2-b]pyridazin-6-yl)-8-fluoroimidazo[1,2-a]pyridin-2-yl)cyclohexane-1-carboxamide]",IC50,100 to 1000 nM
"Cc1cn2nc(-c3cc(F)c4nc(NC(=O)C5CC56CCNC6)cn4c3)cc(C)c2n1 (racemic) [Compound 253, N-(6-(2,8-dimethylimidazo[1,2-b]pyridazin-6-yl)-8-fluoroimidazo[1,2-a]pyridin-2-yl)-5-azaspiro[2.4]heptane-1-carboxamide]",IC50,100 to 1000 nM
"Cc1cn2nc(-c3cc(F)c4nc(NC(=O)C5CN(C)C5(C)C)cn4c3)cc(C)c2n1 (racemic) [Compound 259, N-(6-(2,8-dimethylimidazo[1,2-b]pyridazin-6-yl)-8-fluoroimidazo[1,2-a]pyridin-2-yl)-1,2,2-trimethylazetidine-3-carboxamide]",IC50,100 to 1000 nM
"Cc1cn2nc(-c3cc(F)c4nc(NC(=O)C5CNC5(C)C)cn4c3)cc(C)c2n1 (racemic) [Compound 260, N-(6-(2,8-dimethylimidazo[1,2-b]pyridazin-6-yl)-8-fluoroimidazo[1,2-a]pyridin-2-yl)-2,2-dimethylazetidine-3-carboxamide]",IC50,100 to 1000 nM
Cc1cn2nc(-c3cc(F)c4nc(NC(=O)C56CCCN(CC5)C6)cn4c3)cc(C)c2n1 (racemic) [Compound 279],IC50,< 100 nM
Cc1cn2nc(-c3cc(F)c4nc(NC(=O)C5CC6CC5CN6)cn4c3)cc(C)c2n1 (racemic) [Compound 280],IC50,< 100 nM
"Cc1cn2nc(-c3cc(F)c4nc(NC(=O)CC5CCNC5)cn4c3)cc(C)c2n1 (racemic) [Compound 283, N-(6-(2,8-dimethylimidazo[1,2-b]pyridazin-6-yl)-8-fluoroimidazo[1,2-a]pyridin-2-yl)-2-(pyrrolidin-3-yl)acetamide]",IC50,100 to 1000 nM
"Cc1cn2nc(-c3cc(F)c4nc(NC(=O)CC5CCCCN5C)nn4c3)cc(C)c2n1 (racemic) [Compound 328, N-(6-(2,8-dimethylimidazo[1,2-b]pyridazin-6-yl)-8-fluoro-[1,2,4]triazolo[1,5-a]pyridin-2-yl)-2-(1-methylpiperidin-2-yl)acetamide]",IC50,100 to 1000 nM
"Cc1cn2nc(-c3cc(F)c4nc(NC(=O)CC5CCCN5C)nn4c3)cc(C)c2n1 (racemic) [Compound 329, N-(6-(2,8-dimethylimidazo[1,2-b]pyridazin-6-yl)-8-fluoro-[1,2,4]triazolo[1,5-a]pyridin-2-yl)-2-(1-methylpyrrolidin-2-yl)acetamide]",IC50,100 to 1000 nM
"Cc1cn2nc(-c3cc(F)c4nc(NC(=O)C5CCNC6(CC6)C5)nn4c3)cc(C)c2n1 (racemic) [Compound 330, N-(6-(2,8-dimethylimidazo[1,2-b]pyridazin-6-yl)-8-fluoro-[1,2,4]triazolo[1,5-a]pyridin-2-yl)-4-azaspiro[2.5]octane-7-carboxamide]",IC50,100 to 1000 nM
"Cc1cn2nc(-c3cc(F)c4nn(C5CCNC(C)(C)C5)nc4c3)cc(C)c2n1 (racemic) [Compound 394, 6-(2,8-dimethylimidazo[1,2-b]pyridazin-6-yl)-2-(2,2-dimethylpiperidin-4-yl)-4-fluoro-2H-benzo[d][1,2,3]triazole]",IC50,100 to 1000 nM
"Cc1cn2nc(-c3cc(F)c4nn(C5CC6CNCC65)nc4c3)cc(C)c2n1 (racemic) [Compound 397, 2-(3-azabicyclo[3.2.0]heptan-6-yl)-6-(2,8-dimethylimidazo[1,2-b]pyridazin-6-yl)-4-fluoro-2H-benzo[d][1,2,3]triazole]",IC50,100 to 1000 nM
"Cc1cn2nc(-c3cc(F)c4nn(C5C[C@@H](C)N[C@H](C)C5)nc4c3)cc(C)c2n1 (relative stereo) [Compound 393, 6-(2,8-dimethylimidazo[1,2-b]pyridazin-6-yl)-2-((2R,6R)-2,6-dimethylpiperidin-4-yl)-4-fluoro-2H-benzo[d][1,2,3]triazole]",IC50,100 to 1000 nM
"CCN1CC[C@@H](N(C)c2nc3c(F)cc(-c4cc(C)c5nc(C)cn5n4)cc3o2)C[C@@H]1C (relative stereo) [Compound 488, rel-6-(2,8-dimethylimidazo[1,2-b]pyridazin-6-yl)-N-((2R,4S)-1-ethyl-2-methylpiperidin-4-yl)-4-fluoro-N-methylbenzo[d]oxazol-2-amine]",IC50,100 to 1000 nM
"Cn1cc2cc(-c3cc(F)c4nc([C@H]5CNCCO5)cn4c3)cc(F)c2n1 (single isomer, unassigned) [Compound 70]",IC50,1000 to 9000 nM
"Cn1cc2cc(-c3cc(F)c4nc([C@@H]5CNCCO5)cn4c3)cc(F)c2n1 (single isomer, unassigned) [Compound 71]",IC50,100 to 1000 nM
"Cc1cn2nc(-c3cc(F)c4nc([C@H]5CCC6(CCNCC6)C5)cn4c3)cc(C)c2n1 (single isomer, unassigned) [Compound 114]",IC50,< 100 nM
"Cc1cn2nc(-c3cc(F)c4nc([C@]56CC[C@@H](C5)NC6)cn4c3)cc(C)c2n1 (single isomer, unassigned) [Compound 115]",IC50,100 to 1000 nM
"Cc1cn2nc(-c3cc(F)c4nc([C@@]56CC[C@H](C5)NC6)cn4c3)cc(C)c2n1 (single isomer, unassigned) [Compound 116]",IC50,1000 to 9000 nM
"Cc1cn2nc(-c3cc(F)c4nc([C@H]5CCCNC5)cn4c3)cc(C)c2n1 (single isomer, unassigned) [Compound 117]",IC50,100 to 1000 nM
"Cc1cn2nc(-c3cc(F)c4nc([C@@H]5CCCNC5)cn4c3)cc(C)c2n1 (single isomer, unassigned) [Compound 118]",IC50,< 100 nM
"Cc1cn2nc(-c3cc(F)c4nc([C@@H]5CCC6(CCNCC6)C5)cn4c3)cc(C)c2n1 (single isomer, unassigned) [Compound 119]",IC50,< 100 nM
"Cc1cn2nc(-c3cc(F)c4nc([C@H]5C[C@@]6(CN[C@H](C)C6)C5)cn4c3)cc(C)c2n1 (single isomer, unassigned) [Compound 176, 6-(8-fluoro-2-((2S*,4r,7S*)-7-methyl-6-azaspiro[3.4]octan-2-yl)imidazo[1,2-a]pyridin-6-yl)-2,8-dimethylimidazo[1,2-b]pyridazine]",IC50,< 100 nM
"Cc1cn2nc(-c3cc(F)c4nc([C@H]5C[C@]6(CN[C@@H](C)C6)C5)cn4c3)cc(C)c2n1 (single isomer, unassigned) [Compound 177, 6-(8-fluoro-2-((2S*,4r,7S*)-7-methyl-6-azaspiro[3.4]octan-2-yl)imidazo[1,2-a]pyridin-6-yl)-2,8-dimethylimidazo[1,2-b]pyridazine]",IC50,< 100 nM
"Cc1cn2nc(-c3cc(F)c4nc([C@H]5C[C@]6(CN[C@H](C)C6)C5)cn4c3)cc(C)c2n1 (single isomer, unassigned) [Compound 178, 6-(8-fluoro-2-((2R*,4r,7R*)-7-methyl-6-azaspiro[3.4]octan-2-yl)imidazo[1,2-a]pyridin-6-yl)-2,8-dimethylimidazo[1,2-b]pyridazine]",IC50,< 100 nM
"Cc1cn2nc(-c3cc(F)c4nc([C@@H]5CCNC6(CC6)C5)cn4c3)cc(C)c2n1 (single isomer, unassigned) [Compound 179]",IC50,100 to 1000 nM
